Data on 18 compounds can be found in patent US10710994B2, “Oxadiazole transient receptor potential channel inhibitors” (Genentech, Inc., priority 2018, dated 2020).

The experiment deals with human TRPA1 channel (Homo sapiens (Human), UniProt O75762). The experiment can be described thus: hTRPA1 CHO Ca2+ FLIPR Tetra assay: block of cinnamaldehyde induced calcium influx. The class given is cell-based. To be noted: CHO cells expressing TRPA1, Hill coefficient fixed to 1.5. How it is done: CHO cells expressing TRPA1 were plated into 384-well plates, incubated overnight at 37° C., and loaded with BD calcium indicator dye for 1 hr at 37° C. followed by 15 minutes at room temperature. The assay buffer was Hank's Balanced Salt Solution (HBSS) containing 20 mM HEPES (pH readjusted to 7.4) along with 0.02% BSA.
Following dye load and plate cool down, compounds were added to the cells using FLIPR Tetra. Plates were then incubated with compounds for 10 minutes or 90 minutes at room temperature prior to adding agonist. Following this incubation, about an EC80 concentration of cinnamaldehyde […] was added to active the channels and block of cinnamaldehyde induced calcium influx was measured.
Fixing the Hill coefficient will generally reduce variability of the IC50 determination. The IC50 results were individually examined to make sure the MIN and MAX points were set correctly prior to validation of the results.

[1] abbreviates: read-out: hTRPA1 IC50 10 min, 10 minutes incubation with compound before cinnamaldehyde (about EC80).
The mark [2] stands for this setting: read-out: hTRPA1 IC50 90 min, 90 minutes incubation with compound before cinnamaldehyde (about EC80).

Each structure is given as a SMILES string. Read-outs that look alike come from different tables or passages of the source.

human TRPA1 channel, sequence (O75762 whole entry): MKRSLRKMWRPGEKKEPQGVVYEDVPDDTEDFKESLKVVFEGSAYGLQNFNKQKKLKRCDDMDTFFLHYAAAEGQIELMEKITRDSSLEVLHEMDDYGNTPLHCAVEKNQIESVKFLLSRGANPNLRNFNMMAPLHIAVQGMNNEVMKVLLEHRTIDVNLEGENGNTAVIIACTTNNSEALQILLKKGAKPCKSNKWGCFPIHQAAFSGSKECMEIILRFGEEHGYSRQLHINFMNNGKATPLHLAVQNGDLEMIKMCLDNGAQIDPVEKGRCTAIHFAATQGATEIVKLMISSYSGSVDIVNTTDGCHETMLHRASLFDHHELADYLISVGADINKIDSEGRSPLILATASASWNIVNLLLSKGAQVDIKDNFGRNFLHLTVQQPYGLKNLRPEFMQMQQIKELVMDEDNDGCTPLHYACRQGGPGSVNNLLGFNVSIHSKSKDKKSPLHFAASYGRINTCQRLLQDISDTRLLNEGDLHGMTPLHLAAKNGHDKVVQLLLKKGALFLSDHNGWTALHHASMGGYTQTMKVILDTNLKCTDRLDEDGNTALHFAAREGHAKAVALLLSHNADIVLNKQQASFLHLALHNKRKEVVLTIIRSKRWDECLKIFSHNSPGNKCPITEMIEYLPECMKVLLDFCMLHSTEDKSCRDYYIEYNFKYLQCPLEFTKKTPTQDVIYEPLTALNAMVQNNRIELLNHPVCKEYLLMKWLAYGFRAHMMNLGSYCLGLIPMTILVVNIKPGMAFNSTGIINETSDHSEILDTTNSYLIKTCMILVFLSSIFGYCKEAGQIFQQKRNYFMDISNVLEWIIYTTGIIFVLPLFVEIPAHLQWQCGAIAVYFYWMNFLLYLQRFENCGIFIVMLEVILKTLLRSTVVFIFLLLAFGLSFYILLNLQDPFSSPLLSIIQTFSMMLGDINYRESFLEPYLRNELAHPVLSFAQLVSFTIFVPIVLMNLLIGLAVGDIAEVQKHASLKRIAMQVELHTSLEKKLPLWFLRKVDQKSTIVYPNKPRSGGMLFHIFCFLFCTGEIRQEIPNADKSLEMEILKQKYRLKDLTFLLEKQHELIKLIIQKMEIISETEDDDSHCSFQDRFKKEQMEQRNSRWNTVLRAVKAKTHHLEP

On to `Nc1ccc2c(=O)n(Cc3nc([C@@H]4CO[C@@H](c5ccc(Cl)cc5)C4)no3)cnc2n1` [Example 28, 7-amino-3-((3-((3R,5R)-5-(4-chlorophenyl)tetrahydro-furan-3-yl)-1,2,4-oxadiazol-5-yl)methyl)pyrido[2,3-d]pyrimidin-4(3H)-one], for which the IC50 under setting [1] amounted to 6.32 nM and the IC50 under setting [2] turned out to be 3.9 nM.

Turning to `Cn1cnc2ncn(Cc3nc([C@@H]4CO[C@@H](c5ccc(Br)cc5)C4)no3)c(=O)c21` [Example 29, 1-((3-((3R,5R)-5-(4-bromophenyl)tetra-hydrofuran-3-yl)-1,2,4-oxadiazol-5-yl)methyl)-7-methyl-1,7-dihydro-6H-purin-6-one], the concentration for half-maximal inhibition (IC50) under setting [1] came out at 7.83 nM and the IC50 under setting [2] turned out to be 1.8 nM.

Consider `Cn1cnc2ncn(Cc3nc([C@@H]4CO[C@@H](c5ccc(-c6ccccc6)cc5)C4)no3)c(=O)c21` [Example 30, 1-((3-((3R,5R)-5-[(1,1′-biphenyl]-4-yl)tetrahydrofuran-3-yl)-1,2,4-oxadiazol-5-yl)methyl)-7-methyl-1,7-dihydro-6H-purin-6-one], for which the 50% inhibitory concentration (IC50) stood at 623 nM under setting [1] and 370 nM under setting [2].

Regarding `Cn1cnc2ncn(Cc3nc([C@@H]4CO[C@@H](c5ccc(Cl)c(Cl)c5)C4)no3)c(=O)c21` [Example 31, 1-((3-((3R,5R)-5-(3,4-dichlorophenyl)tetra-hydrofuran-3-yl)-1,2,4-oxadiazol-5-yl)methyl)-7-methyl-1,7-dihydro-6H-purin-6-one], the IC50 runs as follows: under setting [1], 19.7 nM; under setting [2], 7.8 nM.

With `Cn1cnc2ncn(Cc3nc([C@@H]4CO[C@@H](c5ccc(Cl)c(F)c5)C4)no3)c(=O)c21` [Example 32, 1-((3-((3R,5R)-5-(4-chloro-3-fluorophenyl)tetrahydro-furan-3-yl)-1,2,4-oxadiazol-5-yl)methyl)-7-methyl-1,7-dihydro-6H-purin-6-one], the half-inhibitory concentration (IC50) by setting is: under setting [1], 7.88 nM; under setting [2], 2 nM.

Turning to `Cn1cnc2ncn(Cc3nc([C@@H]4CO[C@@H](c5ccc6ccccc6c5)C4)no3)c(=O)c21` [Example 33, 7-methyl-1-((3-((3R,5R)-5-(naphthalen-2-yl)tetrahydrofuran-3-yl)-1,2,4-oxadiazol-5-yl)methyl)-1,7-dihydro-6H-purin-6-one], the 50% inhibitory concentration (IC50) stood at 4.09 nM under setting [1] and 2.4 nM under setting [2].

Take `Cn1cnc2ncn(Cc3nc([C@@H]4CO[C@@H](c5cc(F)cc(F)c5)C4)no3)c(=O)c21` [Example 34, 1-((3-((3R,5R)-5-(3,5-difluorophenyl)tetra-hydrofuran-3-yl)-1,2,4-oxadiazol-5-yl)methyl)-7-methyl-1,7-dihydro-6H-purin-6-one]: the IC50 under setting [1] turned out to be 63.5 nM and the 50% inhibitory concentration (IC50) under setting [2] was determined as 28 nM.

As for `Cn1cnc2ncn(Cc3nc([C@@H]4CO[C@@H](c5ccc(F)c(Cl)c5)C4)no3)c(=O)c21` [Example 35, 1-((3-((3R,5R)-5-(3-chloro-4-fluorophenyl)tetrahydro-furan-3-yl)-1,2,4-oxadiazol-5-yl)methyl)-7-methyl-1,7-dihydro-6H-purin-6-one], the IC50 came to 16.4 nM under setting [1] and 3.6 nM under setting [2].

Take `Cn1cnc2ncn(Cc3nc([C@@H]4CO[C@@H](c5ccc(C#N)cc5)C4)no3)c(=O)c21` [Example 37, 4-((2R,4R)-4-(5-((7-methyl-6-oxo-6,7-dihydro-1H-purin-1-yl)methyl)-1,2,4-oxadiazol-3-yl)tetrahydrofuran-2-yl)benzonitrile]: the IC50 by setting is: under setting [1], 108 nM; under setting [2], 52 nM.

Consider `Cn1cnc2ncn(Cc3nc([C@@H]4CO[C@@H](c5ccc(C(F)(F)F)cc5)C4)no3)c(=O)c21` [Example 38, 7-methyl-1-((3-((3R,5R)-5-(4-(trifluoromethyl)phenyl)tetrahydrofuran-3-yl)-1,2,4-oxadiazol-5-yl)methyl)-1,7-dihydro-6H-purin-6-one], for which the IC50 runs as follows: under setting [1], 46.4 nM; under setting [2], 29 nM.

For `Cn1cnc2ccn(Cc3nc([C@@H]4CO[C@@H](c5ccc(Cl)cc5)C4)no3)c(=O)c21` [Example 39, 5-((3-((3R,5R)-5-(4-chlorophenyl)tetrahydro-furan-3-yl)-1,2,4-oxadiazol-5-yl)methyl)-3-methyl-3,5-dihydro-4H-imidazo[4,5-c]pyridin-4-one], the concentration for half-maximal inhibition (IC50) reads like this: under setting [1], 3.06 nM; under setting [2], 0.42 nM.

Turning to `Cn1cnc2ncn(Cc3nc([C@@H]4CO[C@@H](c5cc(F)c(F)c(F)c5)C4)no3)c(=O)c21` [Example 40, 7-methyl-1-((3-((3R,5R)-5-(3,4,5-trifluorophenyl)tetrahydrofuran-3-yl)-1,2,4-oxadiazol-5-yl)methyl)-1,7-dihydro-6H-purin-6-one], the half-maximal inhibitory concentration (IC50) runs as follows: under setting [1], 27.6 nM; under setting [2], 11 nM.

With `Cn1cnc2ncn(Cc3nc([C@@H]4CO[C@@H](c5ccc(Cl)cn5)C4)no3)c(=O)c21` [Example 41, 1-((3-((3R,5R)-5-(5-chloropyridin-2-yl)tetrahydrofuran-3-yl)-1,2,4-oxadiazol-5-yl)methyl)-7-methyl-1,7-dihydro-6H-purin-6-one], the IC50 runs as follows: under setting [1], 190 nM; under setting [2], 170 nM.

With `Cn1cnc2ncn(Cc3nc([C@@H]4CO[C@@](C)(c5ccc(Cl)cc5)C4)no3)c(=O)c21` [Example 42, 1-((3-((3R,5R)-5-(4-chlorophenyl)-5-methyltetrahydrofuran-3-yl)-1,2,4-oxadiazol-5-yl)methyl)-7-methyl-1,7-dihydro-6H-purin-6-one], the half-inhibitory concentration (IC50) by setting is: under setting [1], 3710 nM; under setting [2], 2200 nM.

As for `Cn1cnc2ncn(Cc3nc([C@@H]4CO[C@@]5(Cc6ccccc65)C4)no3)c(=O)c21` [Example 43, 1-((3-((4′R,7R)-4′,5′-dihydro-3′H-spiro[bicyclo[4.2.0]octane-7,2′-furan]-1(6),2,4-trien-4′-yl)-1,2,4-oxadiazol-5-yl)methyl)-7-methyl-1,7-dihydro-6H-purin-6-one], the IC50 turned out to be 278 nM under setting [1] and 140 nM under setting [2].

`Cc1cncc2ncn(Cc3nc([C@@H]4CO[C@@H](c5ccc(Cl)cc5)C4)no3)c(=O)c12` [Example 44, 3-((3-((3R,5R)-5-(4-chlorophenyl)tetrahydro-furan-3-yl)-1,2,4-oxadiazol-5-yl)methyl)-5-methylpyrido[3,4-d]pyrimidin-4(3H)-one]: the half-inhibitory concentration (IC50) was 3.2 nM under setting [1] and 1.3 nM under setting [2].

Turning to `O=c1c2ccncc2ncn1Cc1nc([C@@H]2CO[C@@H](c3ccc(Cl)cc3)C2)no1` [Example 45, 3-((3-((3R,5R)-5-(4-chlorophenyl)tetrahydro-furan-3-yl)-1,2,4-oxadiazol-5-yl)methyl)pyrido[3,4-d] pyrimidin-4(3H)-one], the IC50 runs as follows: under setting [1], 19.3 nM; under setting [2], 7.8 nM.

Regarding `Cn1c(=O)ccc2ncn(Cc3nc([C@@H]4CO[C@@H](c5ccc(Cl)cc5)C4)no3)c(=O)c21` [Example 46, 3-((3-((3R,5R)-5-(4-chlorophenyl)tetra-hydrofuran-3-yl)-1,2,4-oxadiazol-5-yl)methyl)-5-methyl-3,5-dihydropyrido[3,2-d] pyrimidine-4,6-dione], the IC50 by setting is: under setting [1], 14.5 nM; under setting [2], 14 nM.

The term IC50 denotes the point on the concentration scale where inhibition reaches its midpoint.
